Measurements reported in article PMC6357004 (Viruses, 2018).

Columns and labels:
[1] = target: neuraminidase (NA) of recombinant influenza B/Phuket/3073/2013 N294S virus (Influenza B virus, UniProt A0A1S5RAG6, N294S); type: biochemical, influenza B/Phuket/3073/2013 virus
[2] = target: neuraminidase (NA) of recombinant influenza B/Phuket/3073/2013 H136N virus (Influenza B virus, UniProt A0A1S5RAG6, H134N); type: biochemical, influenza B/Phuket/3073/2013 virus
[3] = target: neuraminidase (NA) of recombinant influenza B/Phuket/3073/2013 I222T virus (Influenza B virus, UniProt A0A1S5RAG6, I221T); type: biochemical, influenza B/Phuket/3073/2013 virus
[4] = target: neuraminidase (NA) of recombinant influenza B/Phuket/3073/2013 D198E virus (Influenza B virus, UniProt A0A1S5RAG6, D197E); type: biochemical, influenza B/Phuket/3073/2013 virus
[5] = target: neuraminidase (NA) of recombinant influenza B/Phuket/3073/2013 D198N virus (Influenza B virus, UniProt A0A1S5RAG6, D197N); type: biochemical, influenza B/Phuket/3073/2013 virus
[6] = target: neuraminidase (NA) of recombinant influenza B/Phuket/3073/2013 R152K virus (Influenza B virus, UniProt A0A1S5RAG6, R150K); type: biochemical, influenza B/Phuket/3073/2013 virus
[7] = test system: B/Wyoming/07/2017 (B/Yamagata lineage) D198N variant; conditions: cited from earlier work
[8] = read-out: Neuraminidase Inhibitors IC50 values

Compound	Folds (fold changes according to WT virus) [1] [fold]	IC50 [1, 8] [nM]	Folds (fold changes according to WT virus) [2] [fold]	IC50 [2, 8] [nM]	Folds (fold changes according to WT virus) [3] [fold]	IC50 [3, 8] [nM]	Folds (fold changes according to WT virus) [4] [fold]	IC50 [4, 8] [nM]	Folds (fold changes according to WT virus) [5] [fold]	IC50 [5, 8] [nM]	Folds (fold changes according to WT virus) [6] [fold]	IC50 [6, 8] [nM]	susceptibility phenotype [7]
CCC(CC)[C@H](NC(C)=O)[C@@H]1[C@H](O)[C@@H](C(=O)O)C[C@H]1N=C(N)N [Peramivir, peramivir]	46	33.7	240	177	26	19.5	21	15.5	9	6.92	572	423	–
CC(=O)N[C@H]1[C@H]([C@H](O)[C@H](O)CO)OC(C(=O)O)=C[C@@H]1N=C(N)N [Zanamivir, zanamivir]	–	–	–	–	–	–	–	–	–	–	–	–	susceptible
